Reference: patent publication US20260256134A1, “NanoEmulsion Composite Mixture of Essential Oils with Biodegradable Polymers and Co-Surfactants for Antimicrobial Activities and Enhanced Thermal Stability and Antioxidant Activities” (The American University in Cairo, priority 2022, published 2026)

Columns and labels:
Geotricum candiaum = experiment: Inhibition zone method, antimicrobial activity; format: cell-based, Geotricum candidum
Description: (§1) Inhibition zone method was followed in order to test the antimicrobial efficiency of the selected nanoemulsion composite mixture samples against 6 chosen strains of gram-positive bacterial strains, 6 strains of gram-negative bacterial strains 6 strains of fungi as shown in the following list;
(§2) The following formulae were defined: • Formula 1 (F1): Green tea essential oil • Formula 2 (F2): Chitosan solution • Formula 3 (F3): benzalkonium solution • Formula 4 (F4): control (antimicrobial compound) • Formula 5 (F5): Green tea essential oil+Chitosan solution • Formula 6 (F6): The final formula of the nanoemulsion composite mixture
(§3) Inhibition zone method was followed in order to test the antimicrobial efficiency of the 6 selected nanoemulsion composite mixture samples against 6 chosen strains of gram-positive bacterial strains, 6 strains of gram-negative bacterial strains 6 strains of fungi.

Aspergillus fumigatus = experiment: Inhibition zone method, antimicrobial activity; format: cell-based
Description: as §1, §2, §3

Staphylococcus aureus = experiment: Inhibition zone method, antimicrobial activity; format: cell-based
Description: as §1, §2, §3

Penicillium italicum = experiment: Inhibition zone method, antimicrobial activity; format: cell-based
Description: as §1, §2, §3

Pseudomonas aeruginosa = experiment: Inhibition zone method, antimicrobial activity; format: cell-based
Description: as §1, §2, §3

Proteus vulgaris = experiment: Inhibition zone method, antimicrobial activity; format: cell-based
Description: as §1, §2, §3

Enterococcus faecalis = experiment: Inhibition zone method, antimicrobial activity; format: cell-based
Description: as §1, §2, §3

Candida albicans = experiment: Inhibition zone method, antimicrobial activity; format: cell-based
Description: as §1, §2, §3

Micrococcus spp. = experiment: Inhibition zone method, antimicrobial activity; format: cell-based
Description: as §1, §2, §3

Aspergillus niger = experiment: Inhibition zone method, antimicrobial activity; format: cell-based
Description: as §1, §2, §3

Eisherecia coli = experiment: Inhibition zone method, antimicrobial activity; format: cell-based
Description: as §1, §2, §3

Klebsella pneumonia = experiment: Inhibition zone method, antimicrobial activity; format: cell-based
Description: as §1, §2, §3

Enterobacter colacae = experiment: Inhibition zone method, antimicrobial activity; format: cell-based
Description: as §1, §2, §3

Streptococcus mutants = experiment: Inhibition zone method, antimicrobial activity; format: cell-based
Description: as §1, §2, §3

Salmonella Typhium = experiment: Inhibition zone method, antimicrobial activity; format: cell-based
Description: as §1, §2, §3

Fusarium moniliform = experiment: Inhibition zone method, antimicrobial activity; format: cell-based
Description: as §1, §2, §3

Bacillus subtilis = experiment: Inhibition zone method, antimicrobial activity; format: cell-based
Description: as §1, §2, §3

MRSA = experiment: Inhibition zone method, antimicrobial activity; format: cell-based, Methicillin-resistant Staphylococcus aureus (MRSA)
Description: as §1, §2, §3

[1] = orally administered to rats; cited from earlier work

Row | Substance | Antimicrobial activity expressed as % inhibition (Geotricum candiaum) | Antimicrobial activity expressed as % inhibition (Aspergillus fumigatus) | Antimicrobial activity expressed as % inhibition (Staphylococcus aureus) | Antimicrobial activity expressed as % inhibition (Penicillium italicum) | Antimicrobial activity expressed as % inhibition (Pseudomonas aeruginosa) | Antimicrobial activity expressed as % inhibition (Proteus vulgaris) | Antimicrobial activity expressed as % inhibition (Enterococcus faecalis) | Antimicrobial activity expressed as % inhibition (Candida albicans) | Antimicrobial activity expressed as % inhibition (Micrococcus spp.) | Antimicrobial activity expressed as % inhibition (Aspergillus niger) | Antimicrobial activity expressed as % inhibition (Eisherecia coli) | Antimicrobial activity expressed as % inhibition (Klebsella pneumonia) | Antimicrobial activity expressed as % inhibition (Enterobacter colacae) | Antimicrobial activity expressed as % inhibition (Streptococcus mutants) | Antimicrobial activity expressed as % inhibition (Salmonella Typhium) | Antimicrobial activity expressed as % inhibition (Fusarium moniliform) | Antimicrobial activity expressed as % inhibition (Bacillus subtilis) | Antimicrobial activity expressed as % inhibition (MRSA) | Lethal dose 50 (LD50) [1]
1 | benzalkonium [Formula F3] | 89% | 52% | 50% | 96% | 66% | 95% | 60% | 50% | 64% | 70% | 63% | 80% | 94% | 45% | 41% | 90% | 72% | 90% | 
2 | Benzalkonium chloride [BAC] |  |  |  |  |  |  |  |  |  |  |  |  |  |  |  |  |  |  | 234 to 525 mg/kg
